Source: ChEMBL document CHEMBL5604063, “ASAP - DENV-2 NS2B-NS3 protease fluorescence dose response” (2024)
Values joined by “and” are separate entries in the source; they are usually repeats but may differ in a detail not shown here. Equal values may be shown once.

Assays:
Genome polyprotein [1] = molecular target: T1, Genome polyprotein (dengue virus type 2, UniProt P29990); type: functional, Thailand/16681/1984
Genome polyprotein [2] = molecular target: T1, Genome polyprotein; type: functional, Thailand/16681/1984; remark: listed apart in the source

T1 sequence (P29990 1346-1475 limits assumed): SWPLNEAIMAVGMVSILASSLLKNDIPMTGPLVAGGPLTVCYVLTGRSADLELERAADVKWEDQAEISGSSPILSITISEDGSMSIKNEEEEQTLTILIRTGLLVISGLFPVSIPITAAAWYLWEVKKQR
T1 sequence (P29990 1476-2093 limits assumed): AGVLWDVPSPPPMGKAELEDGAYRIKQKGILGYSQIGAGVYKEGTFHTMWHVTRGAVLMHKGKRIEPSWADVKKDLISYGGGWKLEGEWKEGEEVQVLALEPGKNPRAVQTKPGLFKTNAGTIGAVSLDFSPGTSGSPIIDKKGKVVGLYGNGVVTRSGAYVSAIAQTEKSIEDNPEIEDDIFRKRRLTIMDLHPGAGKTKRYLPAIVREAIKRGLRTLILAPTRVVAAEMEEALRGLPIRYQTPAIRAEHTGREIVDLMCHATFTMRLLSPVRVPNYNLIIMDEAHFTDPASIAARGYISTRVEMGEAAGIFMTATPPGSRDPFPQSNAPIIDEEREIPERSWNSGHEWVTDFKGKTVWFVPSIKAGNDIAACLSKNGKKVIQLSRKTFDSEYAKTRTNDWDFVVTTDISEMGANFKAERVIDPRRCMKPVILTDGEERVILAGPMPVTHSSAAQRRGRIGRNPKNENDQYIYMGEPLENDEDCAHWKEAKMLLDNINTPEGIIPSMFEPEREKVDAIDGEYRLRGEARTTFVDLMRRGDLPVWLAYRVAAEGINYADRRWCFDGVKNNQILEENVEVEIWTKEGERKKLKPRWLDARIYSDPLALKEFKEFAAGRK

Compound | IC50 (Genome polyprotein [1]) | IC50 (Genome polyprotein [2])
O=C(Nc1ccc2c(c1)CNC2)c1cc(C(F)(F)F)c2cn[nH]c2n1 | > 100 µM | > 99.5 µM
O=C(NCC(F)F)[C@H](Nc1ccc2c(c1)CNC2)c1cc(F)cc2[nH]ncc12 | 78.2 µM | > 99.5 µM
O=C1OCc2ccc(NC(=O)[C@H]3CCNC3)cc21 | > 100 µM | > 99.5 µM
C=CC[C@H]1NCc2cc(N[C@H](C(=O)NC(C)C)c3cc(Cl)cc4[nH]ncc34)ccc21 | 56.9 µM | 63.9 µM
CNC(=O)[C@H](Nc1cccc([C@H]2CCOC2)c1)c1cc(C2CC2)n(C)n1 | > 100 µM | > 99.5 µM
NCc1cc(Cl)cc(C(=O)Nc2cc([C@H]3CCOC3)ccn2)c1 | > 100 µM | > 99.5 µM
CC1=C(c2cc(NC(=O)c3cc(Cl)cc4[nH]ncc34)cc3c2CNC3)CCC1=O | > 100 µM | > 99.5 µM
Cc1c(C(=O)Nc2cc(-c3cccnc3)ccn2)cc(C(C)(C)C)n1C | > 100 µM | > 99.5 µM
Cn1c(C2CC2)cc(C(=O)Nc2cc(-c3cccnc3)ccn2)c1C1CC1 | > 100 µM | > 99.5 µM
Cc1c(C(=O)Nc2ccnc(O[C@H]3CCOC3)c2)cc(C2CC2)n1C | > 100 µM | > 99.5 µM
O=C1OCc2ccc(NC(=O)[C@H]3CNCc4[nH]ncc43)cc21 | > 100 µM | > 99.5 µM
O=C(Nc1cc(-c2cccnc2)ccn1)c1cc(C2CC2)no1 | > 100 µM | > 99.5 µM
O=C(Nc1cc2c(c(C3=CC[C@H](O)CC3)c1)CNC2)c1cc(Cl)cc2[nH]ncc12 | > 100 µM | 69.5 µM
Cn1nc(C2CC2)cc1C(=O)Nc1cc(-c2cccnc2)ccn1 | > 100 µM | > 99.5 µM
CNC(=O)[C@H](Nc1ccc2c(c1)CNC2)c1cc(Cl)cc2c1OCC2 | > 100 µM | > 99.5 µM
CC(C)NC(=O)[C@H](Nc1ccc2c(c1)CNC2)c1cc(F)cc2[nH]ccc12 | > 100 µM | > 99.5 µM
O=C(Nc1cc(-c2cccnc2)ccn1)c1cnc(C2CC2)s1 | > 100 µM | > 99.5 µM
NS(=O)(=O)c1cc(F)cc(C(=O)Nc2ccc3c(c2)CNC3)c1 | > 100 µM | > 99.5 µM
CC1(C)C[C@H](C(=O)Nc2ccc3c(c2)C(=O)OC3)CCN1 | > 100 µM | > 99.5 µM
Cc1nnc(SC[C@H]2CCCN2C(=O)Nc2ccc3c(c2)CNC3)s1 | > 100 µM | > 99.5 µM
O=C(Nc1ccc2c(c1)CNC2)c1cccc2nc(O)ccc12 | 47.3 µM and 4.98 µM | > 99.5 µM
O=C1Cc2cc(C(=O)Nc3ccc4c(c3)CNC4)c(Cl)cc2N1 | 35.9 µM and 22.7 µM | > 99.5 µM

Compound | IC50 (Genome polyprotein [1]) | IC50 (Genome polyprotein [2])
Cc1nc2ccc(C(=O)Nc3ccc4c(c3)CNC4)cc2s1 | > 100 µM | > 99.5 µM
O=C(Nc1ccc2c(c1)CNC2)c1cc(F)cc2c1CCNC2 | > 100 µM | > 99.5 µM
O=C(Nc1ccc2c(c1)CNC2)c1cc(Br)cc2c1nc1n2CCCC1 | 47.5 µM and 35.2 µM | 23.8 µM
O=C(Nc1ccc2c(c1)CNC2)c1n[nH]c2ccc(F)cc12 | 78.7 µM | > 99.5 µM
O=C1Cc2cc(C(=O)Nc3ccc4c(c3)CNC4)ccc2N1 | > 100 µM | 9.95 µM and 7.04 µM and 6.09 µM
Fc1cc(CNc2ccc3c(c2)CNC3)c2cn[nH]c2c1 | > 100 µM | > 99.5 µM
NCCC1(C(=O)Nc2ccc3c(c2)C(=O)OC3)CCCC1 | > 100 µM | > 99.5 µM
O=C(Nc1cc(-c2cccnc2)ccn1)c1cc(C2CC2)[nH]n1 | > 100 µM | > 99.5 µM
O=C(Nc1cc(-c2cccnc2)ccn1)c1cc2n(n1)CCS2(=O)=O | > 100 µM | > 99.5 µM
Cn1nc(C(=O)Nc2cc([C@H]3CCOC3)ccn2)cc1C1CC1 | > 100 µM | > 99.5 µM
O=C1OCc2ccc(NC(=O)c3cc(F)cc4c3CCNC4)cc21 | > 100 µM | > 99.5 µM
Cc1c(C(=O)Nc2cccc(C3CCOCC3)c2)cc(C2CC2)n1C | > 100 µM | > 99.5 µM
O=C1CCCc2cc(C(=O)Nc3ccc4c(c3)CNC4)ccc2N1 | > 100 µM | > 99.5 µM
O=C(Nc1cc(-c2cccnc2)ccn1)c1coc(C2CC2)n1 | > 100 µM | > 99.5 µM
N#Cc1cccc(-c2nc3c(C(=O)Nc4ccc5c(c4)CNC5)cc(Cl)cc3[nH]2)c1 | 17.3 µM and 12.2 µM | 1.76 µM and 2.66 µM
CO[C@]1(C(=O)Nc2ccc3c(c2)C(=O)OC3)CCCNC1 | > 100 µM | > 99.5 µM
Cc1c(C(=O)Nc2cc(-c3cccnc3)ccn2)cc(C2CCC2)n1C | > 100 µM | > 99.5 µM
O=C(Nc1cc(-c2cccnc2)ccn1)c1cc2n(n1)CC(F)(F)C2 | > 100 µM | > 99.5 µM
O=C(Nc1ccc2c(c1)CNC2)c1cc(F)cc(-c2cnc(C3CC3)s2)c1 | > 100 µM | > 99.5 µM
O=C(Nc1cc(-c2cccnc2)ccn1)c1cc2n(n1)CC1(CC1)C2 | > 100 µM | > 99.5 µM
Cn1nc(C(F)(F)F)cc1C(=O)Nc1cc(-c2cccnc2)ccn1 | > 100 µM | > 99.5 µM
